In patent US4317768A, “Dihydropyridine derivatives as stabilizers for vinyl chloride polymers” (priority 1977, dated 1982):
“Also recorded” adds a separate entry of the source. Blank lines part the entries; values can stand above or below the molecule they belong to.

What was measured:
[1] = Comparison with stabilizer G1, 0.1 part, 185° C.
Method: A test was also carried out with the following compound:
Another test was made with the same resin but containing 0.1 part of stabilizer.

[2] = Photostabilizing power, PVC plates exposed to the sun, GARDNER scale
Method: The photostabilizing power of the compounds of the invention was studied by exposing to the sun polyvinyl chloride plates which had been stabilized either by a dihydropyridine of the invention or by 2-phenyl-indole, or again by 2-(3'-methoxy-4'-hydroxy)-indole. This last product is an extremely valuable thermostabilizer for thermoplastic resins and is described in British Pat. No. 1,489,685.
The resin given hereunder was prepared by mixing on cylinders at 160° C.:
The plates of stabilized polyvinyl chloride, together with a plate which had not been stabilized, were stood in the sun under the same conditions and at the same time. Their colour was measured after 6 hours and 12 hours of exposure.
The coloration of the plates was determined according to two methods:
On the plates themselves, following the GARDNER scale, as in the section on thermostability,
The sign + means that the coloration lies between the lower unit and the upper half-unit. Thus, 3+ means that the coloration lies between 3 and 3.5. Similarly, the sign - means that the coloration lies between the lower half-unit and the upper unit.

[3] = Photostabilizing power, sheets exposed to the sun, co-polymer (a)
Method: (§1) The sheets were exposed to the sun and their colorations were also determined according to the GARDNER method.

[4] = Thermostability, flexible co-polymer (b), Metrastat oven 160° C.; conditions: 0.2 part
Method: (§2) The study of the static thermostability of vinyl co-polymers was carried out according to the GARDNER method described above and, also in a more detailed manner in British Patent No. 1,489,685.
(b) Flexible co-polymer vinyl chloride-vinyl acetate.
(§3) The following compound was prepared:
The resin was allowed to gel for 5 minutes at 120° C. and the sheets were heated at 160° C. in a Metrastat oven.

[5] = Thermostability, flexible co-polymer (c), Metrastat oven 160° C.; conditions: 0.3 part
Method: as §2
(c) Flexible co-polymer vinyl chloride-vinyl acetate
as §3
The sheets were heated in a Metrastat oven at 160° C. and the following results were obtained: […]

[6] = Polarographic study of the oxidation potential; type: physicochemical; conditions: acetonitrile, 0.1 M lithium perchlorate, vitrous carbon electrode, calomel reference
In short: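 Oxidation potential by polarography on a rotating vitreous carbon electrode (2,500 r.p.m.) with calomel reference and platinum counter electrode, in 0.1 M lithium perchlorate in dry acetonitrile. Scan 0 to 2 V at 10 mV/second; compounds at about 0.3×10^-3 mol/liter.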

[7] = Comparison with 2-phenyl-indole, vinyl chloride-vinylidene chloride co-polymer, 210° C.; conditions: 0.3 part
Method: A second test was made using the following compound:
The sheets were heated in a ventilated oven at 210° C. and the following results were obtained: […]

[8] = Stabilization of plastified vinyl resins (pressed plates); conditions: plastified resin
Method: This study was carried out by pressing plates from sheets which had been mixed for 5 minutes at 180° C., the pressing also lasting 5 minutes but at 170° C.
The same parameters as hereabove were studied, namely the duration of the stability of the colour, the duration of the thermostability and the colour of the pressed plate.

[9] = Static thermostability (GARDNER method), rigid PVC sheets, 185° C., 0.3 part stabilizer
Method: This study was carried out according to the GARDNER method, described in British Pat. No. 1,489,685.
The reference substance was 2-phenyl-indole, a well-known and widely used stabilizer.
The stabilizer (dihydropyridine or 2-phenyl-indole) and the other usual ingredients were mixed with powdered vinyl resins and the mixtures were calendered at a temperature of 160° C. to give rigid sheets.
The sheets were then heated in a thermostated oven (185° C. or 210° C.) for different intervals of time until incipient carbonization.
The coloration of the samples was compared to a standard scale of coloration, known as the GARDNER scale and was expressed in terms of the reference figures of the GARDNER scale.
This study was carried out with the following resin:
Polyvinyl chloride resin
SL 2016 is a solution of zinc-2-ethyl-hexanoate in a mixture of hydrocarbons boiling between 158° C. and 184° C.
A second trial was performed at a temperature of 185° C., with a resin containing 0.3 part of stabilizer, the samples being removed from the oven every 6 minutes over a period of 24 minutes, then every 3 minutes until the 42nd minute (or until carbonization).

[10] = Photostabilizing power, sheets exposed to the sun, rigid co-polymer (b)
Method: as §1

[11] = Static thermostability (GARDNER method), rigid PVC sheets, 210° C., 0.3 part stabilizer; conditions: for coloration of the resins, in words: 0 to 3 minutes
In short: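 Rigid sheets calendered at 160° C. from powdered PVC resin with 0.3 part by weight stabilizer (dihydropyridine or 2-phenyl-indole reference) plus usual ingredients. Sheets heated in oven at 210° C., removed every three minutes over 21 minutes until incipient carbonization. Coloration scored against GARDNER scale reference figures.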

Oxidation potential [6]: 0.75 ± 0.01 volts
thermostabilizing power compared to 2-phenyl-indole, in words ([11]; 210° C.): greatly superior to 2-phenyl-indole
Structure (SMILES): C=CCOC(=O)C1=C(C)NC(C)=C(C(=O)OCC=C)C1 [Compound 1, 2,6-Dimethyl-3,5-dicarboallyloxy-1,4-dihydropyridine]
coloration, GARDNER scale ([1]; 0 min): 1
coloration, GARDNER scale ([1]; 2 min): 1
coloration, GARDNER scale ([1]; 4 min): 2
coloration, GARDNER scale ([1]; 6 min): 4
coloration, GARDNER scale ([1]; 8 min): 8
coloration, GARDNER scale ([1]; 10 min): 11
coloration, GARDNER scale ([1]; 12 min): 12
coloration, GARDNER scale ([1]; 14 min): 13
Coloration of the plates GARDNER ([2]; exposure to sun 0): 1
Coloration of the plates GARDNER ([2]; exposure to sun 6h): 1
Coloration of the plates GARDNER ([2]; exposure to sun 12h): 1.5
Colour in GARDNER degrees ([3]; After 24 hours): 1 GARDNER degrees
Colour in GARDNER degrees ([3]; Time 0): 1 GARDNER degrees
coloration, GARDNER scale ([4]; 0 min): 1
coloration, GARDNER scale ([4]; 30 min): 2
coloration, GARDNER scale ([4]; 40 min): 6
coloration, GARDNER scale ([4]; 50 min): 12
coloration, GARDNER scale ([4]; 60 min): 15
coloration, GARDNER scale ([5]; 0 min): 1
coloration, GARDNER scale ([5]; 10 min): 1
coloration, GARDNER scale ([5]; 20 min): 2
coloration, GARDNER scale ([5]; 30 min): 4
coloration, GARDNER scale ([5]; 40 min): 5.5
coloration, GARDNER scale ([5]; 50 min): 6
coloration, GARDNER scale ([5]; 60 min): 7
coloration, GARDNER scale ([7]; 0 min): 1
coloration, GARDNER scale ([7]; 3 min): 1
coloration, GARDNER scale ([7]; 6 min): 2
coloration, GARDNER scale ([7]; 9 min): 4
coloration, GARDNER scale ([7]; 12 min): 10
influence on stability / basic colour of the plate, in words [8]: favourable influence on the stability of the plate; also recorded: favourable influence on the basic colour
coloration, GARDNER scale ([9]; 0 min): 1
coloration, GARDNER scale ([9]; 6 min): 1
coloration, GARDNER scale ([9]; 12 min): 3
coloration, GARDNER scale ([9]; 18 min): 3
coloration, GARDNER scale ([9]; 24 min): 5
coloration, GARDNER scale ([9]; 27 min): 7
coloration, GARDNER scale ([9]; 30 min): 10
coloration, GARDNER scale ([9]; 33 min): 10.5
coloration, GARDNER scale ([9]; 36 min): 11
coloration, GARDNER scale ([9]; 39 min): 16
coloration, GARDNER scale ([9]; 42 min): Burnt
Colour in GARDNER degrees ([10]; After 24 hours): 2 GARDNER degrees
Colour in GARDNER degrees ([10]; Time 0): 1 GARDNER degrees
coloration, GARDNER scale ([11]; 0 min): 1
coloration of the resins, in words [11]: considerably less
coloration, GARDNER scale ([11]; 3 min): 1
coloration, GARDNER scale ([11]; 6 min): 2
coloration, GARDNER scale ([11]; 9 min): 4
coloration, GARDNER scale ([11]; 12 min): 7
coloration, GARDNER scale ([11]; 15 min): Burnt

Oxidation potential [6]: 0.73 ± 0.01 volts
Structure (SMILES): CC1=C(C(=O)OCc2ccccc2)CC(C(=O)OCc2ccccc2)=C(C)N1 [Compound 21, 2,6-Dimethyl-3,5-dicarbobenzyloxy-1,4-dihydropyridine]
coloration, GARDNER scale ([1]; 0 min): 1
coloration, GARDNER scale ([1]; 2 min): 1
coloration, GARDNER scale ([1]; 4 min): 2
coloration, GARDNER scale ([1]; 6 min): 4
coloration, GARDNER scale ([1]; 8 min): 11
coloration, GARDNER scale ([1]; 10 min): 13
coloration, GARDNER scale ([1]; 12 min): 17
Coloration of the plates GARDNER ([2]; exposure to sun 0): 1
Coloration of the plates GARDNER ([2]; exposure to sun 6h): 1
Coloration of the plates GARDNER ([2]; exposure to sun 12h): 1.5
Colour in GARDNER degrees ([3]; After 24 hours): 1 GARDNER degrees
Colour in GARDNER degrees ([3]; Time 0): 1 GARDNER degrees
coloration, GARDNER scale ([4]; 0 min): 1
coloration, GARDNER scale ([4]; 30 min): 1
coloration, GARDNER scale ([4]; 40 min): 3
coloration, GARDNER scale ([4]; 50 min): 8
coloration, GARDNER scale ([4]; 60 min): 15
coloration, GARDNER scale ([5]; 0 min): 1
coloration, GARDNER scale ([5]; 10 min): 1
coloration, GARDNER scale ([5]; 20 min): 2
coloration, GARDNER scale ([5]; 30 min): 5
coloration, GARDNER scale ([5]; 40 min): 6
coloration, GARDNER scale ([5]; 50 min): 7
coloration, GARDNER scale ([5]; 60 min): 12
coloration, GARDNER scale ([7]; 0 min): 1.5
coloration, GARDNER scale ([7]; 3 min): 2
coloration, GARDNER scale ([7]; 6 min): 2
coloration, GARDNER scale ([7]; 9 min): 3
coloration, GARDNER scale ([7]; 12 min): 7
coloration, GARDNER scale ([7]; 15 min): 15
coloration, GARDNER scale ([9]; 0 min): 1
coloration, GARDNER scale ([9]; 6 min): 1
coloration, GARDNER scale ([9]; 12 min): 2
coloration, GARDNER scale ([9]; 18 min): 10
coloration, GARDNER scale ([9]; 24 min): 12
coloration, GARDNER scale ([9]; 27 min): 12
coloration, GARDNER scale ([9]; 30 min): 13
coloration, GARDNER scale ([9]; 33 min): 14
coloration, GARDNER scale ([9]; 36 min): Burnt
Colour in GARDNER degrees ([10]; After 24 hours): 3.5 GARDNER degrees
Colour in GARDNER degrees ([10]; Time 0): 1.5 GARDNER degrees
coloration, GARDNER scale ([11]; 0 min): 1
coloration of the resins, in words [11]: considerably less
coloration, GARDNER scale ([11]; 3 min): 1
coloration, GARDNER scale ([11]; 6 min): 2
coloration, GARDNER scale ([11]; 9 min): 3
coloration, GARDNER scale ([11]; 12 min): 5.5
coloration, GARDNER scale ([11]; 15 min): 14
coloration, GARDNER scale ([11]; 18 min): Burnt
